Measured values reported in patent US11878972B2, “Treatment of neurological disorders” (TORQUR AG, priority 2016, dated 2024).

Experiments:
[1] = tested on: pS6 S235/S236 in A2058 cells; assay: In-cell Western blot, pS6 S235/S236; format: cell-based; details: Homo sapiens, treated for 1 hour, normalized to α-tubulin
Description: (§1) Cells are fixed with 4% paraformaldehyde for 30 minutes at room temperature, washed 2 times with 1% BSA in PBS, permeabilized with 0.1% Triton X-100 in PBS/1% BSA for 30 minutes at room temperature and blocked with 5% goat serum in PBS/1% BSA/0.1% Triton X-100 for 30 minutes at room temperature. […] Cells are washed 3 times 5 minutes with PBS/1% BSA/0.1% triton and plate scanned with the Odyssey Infrared Scanning system using both 700 and 800 nm channels. […] To correct for background staining in the data analysis wells are treated only with secondary antibodies.
(§2) For data analysis the mean background signal from channel 700 nm and 800 nm are subtracted from each signal in channel 700 nm and 800 nm, respectively.
(§3) IC50 values of each compound are determined by plotting the normalized pPBK S473 and pS6 S235/S236 signals, respectively, versus the compound concentrations (in logarithmic scale) and then by fitting a sigmoidal dose-response curve with variable slope to the data using GraphPad™ Prism.

[2] = tested on: pPKB S473 in A2058 cells; assay: In-cell Western blot, pPKB S473; format: cell-based; details: Homo sapiens, treated for 1 hour, normalized to α-tubulin
Description: as §1, §2, §3

[3] = tested on: S6 phosphorylation (S235/236); assay: mTOR signaling in brain samples of pilocarpine pre-treated and naïve mice (western blot); format: in vivo, mouse; details: for decrease of S6 phosphorylation (S235/236) versus control: brain, 3 hours after single oral dose: Cpd. 3 40 mg/kg, Cpd. 8 25 mg/kg, everolimus 5 mg/kg
Description: A ramping-up dosing protocol was used which has the advantage that pilocarpine can be individually applied according to the susceptibility of each mouse. Pilocarpine (Sigma-Aldrich, Germany) was administered to female NMRI mice intraperitoneally at a dose of 100 mg/kg (Pilo-SE group). […] To reduce peripheral side effects of pilocarpine, methylscopolamine (Sigma-Aldrich, Germany) was administered 30 minutes prior to the first injection of pilocarpine. Animals were continuously monitored and duration of convulsive SE was registered [referred to Racine's scale. SE onset was defined as continuous ongoing seizure activity following occurrence of one or two generalized tonic-clonic seizures [stage 4 or 5 on the Racine scale]. SE was characterized by head nodding in an upright (sitting) body position, Straub tail, and slight to moderate convulsions of forelimbs, sometimes interrupted by further generalized tonic-clonic seizures. In order to reduce mortality, SE was terminated by diazepam (10 mg/kg i.p.; diazepam-ratiopharm 10, injection solution) 90 min after SE onset. […] In the sham-SE group mice were treated with the same treatment scheme as the pilo-SE group but pilocarpine was replaced by 0.9% sodium chloride solution. The mortality in the pilo-SE model in mice is relatively high (overall about 50%) and can vary markedly between experimental groups/days. Therefore we had to start with a large number of mice for SE induction in order to reliably obtain a group size of 20-22 animals for the MEST.
Brain samples from pilocarpine treated mice and untreated mice were snap frozen and tissue was lysed in buffer containing 25 mM Tris-HCl, pH 8, 50 mM NaCl, 0.5% (w/v) sodium deoxycholate (DOC), and 0.5% (w/v) Triton X-100 and supplemented with complete protease inhibitor (Roche, Mannheim, Germany) and Phosphostop (NEB, USA). Disruption of cell lysates was performed by drawing up the cell suspension twenty times into a syringe with a small gauge needle (21 G) on ice. Protein concentrations in the lysates were determined by using the Pierce BCA Protein Assay kit (Thermo Scientific, Bonn, Germany) according to the manufacturer's instructions. […] Membranes were incubated with primary antibodies anti S6 1:1000, anti S6 Phospho Serin (240/244) 1:1000, anti S6 Phospho Serin (235/236) 1:2000 (NEB) and anti-Actin 1:100 (Sigma-Aldrich) for 1 h in 2% milk in PBST at room temperature (RT) and washed three times for 10 min in PBS-T. Secondary antibodies anti-rabbit-HRP 1:1000 (Dako, Hamburg, Germany) were incubated for 1 h in 2% milk in PBST at RT and washed three times for 10 min in PBST. Proteins were detected by enhanced chemiluminescence using SuperSignal West Femto Chemiluminescent Substrate (Thermo Scientific) and the ChemiDoc system (Bio-Rad, Munich, Germany) with QuantityOne software (Bio-Rad) according to the manufacturer's protocol. Relative protein expressions were quantified densitometrically with QuantityOne (Bio-Rad) software and calculated by normalization to the reference signals of actin with GraphPad Prism software (GraphPad, San Diego, CA, USA).
Pilocarpine pre-treated and naïve mice were treated with a single oral dose of Cpd. 3 (40 mg/kg), Cpd. 8 (25 mg/kg), everolimus (5 mg/kg) or vehicle. 5 mice per group were utilized and sacrificed after 3 hours.

[4] = tested on: female NMRI mice, nonepileptic (sham-SE) and epileptic (pilo-SE); assay: Maximal electroshock seizure threshold test (MEST); format: in vivo, mouse; details: pretreatment 3 h
Description: A total of 166 adult female NMRI mice were used obtained from Charles River (Sulzfeld, Germany) at a weight range of 21-25 g (mice). Animals were kept under the following conditions: Housing: Animals were housed in groups of max. 8 mice under controlled conditions (temperature: 22±1° C.; humidity: 50% 60%/), under a 12-h light-dark cycle (lights on at 6:00 a.m.). Feeding: Standard laboratory chow (Altromin 1324 standard diet, Altromin Spezialfutter GmbH, Lage, Germany) was provided ad libitum. Drinking water: Tap water was provided ad libitum.
The MEST determines a population seizure threshold in groups of ˜20 animals and not the threshold for an individual animal. In the present study, the MEST was determined by a staircase procedure as previously described. A stimulator (BMT Medizintechnik, Berlin, Germany) that delivered a constant current (adjustable from 1-200 mA regardless of the impedance of the animal) with sinusoidal pulses (50/sec) for 0.2 sec was used.
Current administration was performed via bilateral transcorneal stimulation (using copper electrodes). Before transcorneal stimulation, a drop of tetracaine solution (2%) was administered to the eyes of the mouse for local anesthesia. Two minutes later, the mouse was restrained by hand to press the copper electrodes on both corneas while the stimulus was applied by stepping on a foot pedal switch connected with the stimulator. Electrodes were covered with soft leather and soaked with saline before each current application. […] The first stimulation was started with a current near to the control threshold.
3 (HCl): 40/100 mg in 10 ml (Suspension; 5% PEG 400 and 2% Tween 80, HPBCD (10%6)) • Cpd. 8 (HCl): 12.5/25 mg in 10 ml (5% PEG 400 and 2% Tween 80, HPBCD (10%))
Statistical analysis were calculated using Student's t-test. All tests were used two-sided; a P<0.05 was considered significant.
We performed no special tests for the determination of adverse effects. Mice were observed about 30 min after injection in their home cages for obvious sedation or reduction of wellbeing. Five minutes before electrical stimulation mice were again observed in their home cages and two minutes before stimulation during handling procedure for treatment with local anaesthesia. Every obvious variation from normal behavior was noted. Only phenobarbital induced noticeable sedation which lasted for more than 60 min. All other test drugs (including vehicle solutions) were tolerated without any obvious adverse effects.

SMILES	IC50 [1]	IC50 [2]	IC50 ([1]; A2058, 1 h)	IC50 ([2]; A2058, 1 h)	further results
C[C@H]1COCCN1c1nc(-c2cnc(N)cc2C(F)F)cc(N2CCOCC2)n1 [Compound 31, (S)-4-(difluoromethyl)-5-(2-(3-methylmorpholino)-6-morpholinopyrimidin-4-yl)pyridin-2-amine]	124 nM	146 nM			
C[C@H]1COCCN1c1nc(-c2cnc(N)nc2C(F)F)cc(N2CCOCC2)n1 [Compound 32, (S)-4′-(difluoromethyl)-2-(3-methylmorpholino)-6-morpholino-[4,5′-bipyrimidin]-2′-amine]	387 nM	100 nM			
CC1(C)COCCN1c1nc(-c2cnc(N)cc2C(F)F)nc(N2CCOCC2(C)C)n1 [Compound 39, 5-[4,6-bis(3,3-dimethylmorpholin-4-yl)-1,3,5-triazin-2-yl]-4-(difluoromethyl)pyridin-2-amine]			47 nM	106 nM	
C[C@@H]1COC[C@H](C)N1c1nc(-c2cnc(N)cc2C(F)F)nc(N2[C@H](C)COC[C@@H]2C)n1 [Compound 40, 5-[4,6-bis[(3R,5S)-3,5-dimethylmorpholin-4-yl]-1,3,5-triazin-2-yl]-4-(difluoromethyl)pyridin-2-amine]	160 nM	252 nM			
C[C@@H]1COCCN1c1nc(-c2cnc(N)cc2C(F)F)nc(N2CCOC[C@H]2C)n1 [Compound 41, 5-[4,6-bis[(3R)-3-methylmorpholin-4-yl]-1,3,5-triazin-2-yl]-4-(difluoromethyl)pyridin-2-amine]	261 nM	436 nM			
CC1(C)COCCN1c1nc(-c2cnc(N)cc2C(F)F)nc(N2CCOCC2)n1 [Compound 42, 4-(difluoromethyl)-5-[4-(3,3-dimethylmorpholin-4-yl)-6-morpholino-1,3,5-triazin-2-yl]pyridin-2-amine]			45 nM	54 nM	
COC[C@@H]1COCCN1c1nc(-c2cnc(N)cc2C(F)F)nc(N2CCOC[C@H]2C)n1 [Compound 46, 4-(difluoromethyl)-5-[4-[(3R)-3-(methoxymethyl)morpholin-4-yl]-6-[(3R)-3-methylmorpholin-4-yl]-1,3,5-triazin-2-yl]pyridin-2-amine]			426 nM	956 nM	
C[C@@H]1COCCN1c1nc(-c2cnc(N)cc2C(F)F)nc(N2C3COCC2C3)n1 [Compound 50, 4-(difluoromethyl)-5-[4-[(3R)-3-methylmorpholin-4-yl]-6-(3-oxa-6-azabicyclo[3.1.1]heptan-6-yl)-1,3,5-triazin-2-yl]pyridin-2-amine]			407 nM	1560 nM	
CC[C@@H]1COCCN1c1nc(-c2cnc(N)cc2C(F)F)nc(N2CCOC[C@H]2CC)n1 [Compound 54, 5-[4,6-bis[(3R)-3-ethylmorpholin-4-yl]-1,3,5-triazin-2-yl]-4-(difluoromethyl)pyridin-2-amine]			209 nM	354 nM	
Nc1cc(C(F)F)c(-c2nc(N3CCOCC34CCC4)nc(N3CCOCC34CCC4)n2)cn1 [Compound 55, 5-[4,6-bis(8-oxa-5-azaspiro[3.5]nonan-5-yl)-1,3,5-triazin-2-yl]-4-(difluoromethyl)pyridin-2-amine]			526 nM	942 nM	
C[C@@H]1COCCN1c1nc(-c2cnc(N)cc2C(F)F)nc(N2[C@H](C)COC[C@H]2C)n1 [Compound 78, 4-(difluoromethyl)-5-[4-[(3R,5R)-3,5-dimethylmorpholin-4-yl]-6-[(3R)-3-methylmorpholin-4-yl]-1,3,5-triazin-2-yl]pyridin-2-amine]			392 nM	506 nM	
C[C@@H]1COCCN1c1nc(-c2cnc(N)cc2C(F)F)nc(N2[C@@H](C)COC[C@@H]2C)n1 [Compound 79, 4-(difluoromethyl)-5-[4-[(3S,5S)-3,5-dimethylmorpholin-4-yl]-6-[(3R)-3-methylmorpholin-4-yl]-1,3,5-triazin-2-yl]pyridin-2-amine]			136 nM	200 nM	
C[C@H]1COC[C@H](C)N1c1nc(-c2cnc(N)cc2C(F)F)nc(N2[C@@H](C)COC[C@@H]2C)n1 [Compound 83, 5-[4,6-bis[(3S,5S)-3,5-dimethylmorpholin-4-yl]-1,3,5-triazin-2-yl]-4-(difluoromethyl)pyridin-2-amine]	294 nM	379 nM			
C[C@@H]1COCCN1c1nc(-c2cnc(N)cc2C(F)F)nc(N2CCOCC23CCC3)n1 [Compound 88, 4-(difluoromethyl)-5-[4-[(3R)-3-methylmorpholin-4-yl]-6-(8-oxa-5-azaspiro[3.5]nonan-5-yl)-1,3,5-triazin-2-yl]pyridin-2-amine]			192 nM	271 nM	
CO[C@H]1C[C@@H]2CC[C@@H](C)[C@@](O)(O2)C(=O)C(=O)N2CCCC[C@H]2C(=O)O[C@H]([C@H](C)C[C@@H]2CC[C@@H](OCCO)[C@H](OC)C2)CC(=O)[C@H](C)/C=C(\C)[C@@H](O)[C@@H](OC)C(=O)[C@H](C)C[C@H](C)/C=C/C=C/C=C/1C [everolimus, reference compound]					decrease of S6 phosphorylation (S235/236) versus control ([3]; epileptic (pilocarpine pre-treated) mice): No significant changes; S6 phosphorylation / mTOR signaling in brain (FIG. 3B) ([3]; epileptic/pilocarpine pre-treated and naïve mice, single oral dose): did not show significant mTOR signaling inhibition in brain; decrease of S6 phosphorylation (S235/236) versus control ([3]; naïve mice): No significant changes; Threshold difference between nonepileptic and epileptic ([4]; 5 mg/kg everolimus p.o.): 20%; Threshold difference between vehicle and drug threshold, epileptic ([4]; 5 mg/kg everolimus p.o.): 16%; Threshold difference between vehicle and drug threshold, nonepileptic ([4]; 5 mg/kg everolimus p.o.): 13%; Threshold difference between nonepileptic and epileptic ([4]; 10 mg/kg everolimus p.o.): 1%; Threshold difference between vehicle and drug threshold, nonepileptic ([4]; 10 mg/kg everolimus p.o.): 10%
C[C@H]1COCCN1c1nc(-c2cnc(N)cc2C(F)(F)F)nc(N2CCOCC2)n1 [reference compound]	90 nM	196 nM			
C[C@H]1COCCN1c1nc(-c2cnc(N)nc2C(F)(F)F)nc(N2CCOCC2)n1 [reference compound]	164 nM	91 nM			
Nc1cc(C(F)(F)F)c(-c2nc(N3CCOCC3)cc(N3CCOCC3)n2)cn1 [reference compound]		555 nM	665 nM		
